Measured values from US8785468B2, “Phenylalanine amide derivatives useful for treating insulin-related diseases and conditions” (Amgen Inc., priority 2009, dated 2014).
Where a name gives a salt, the structure may show the parent alone.

Molecular target: T1, human receptor found in pancreatic islet cells (Homo sapiens, UniProt Q7Z601)
T1 sequence (Q7Z601 1-462): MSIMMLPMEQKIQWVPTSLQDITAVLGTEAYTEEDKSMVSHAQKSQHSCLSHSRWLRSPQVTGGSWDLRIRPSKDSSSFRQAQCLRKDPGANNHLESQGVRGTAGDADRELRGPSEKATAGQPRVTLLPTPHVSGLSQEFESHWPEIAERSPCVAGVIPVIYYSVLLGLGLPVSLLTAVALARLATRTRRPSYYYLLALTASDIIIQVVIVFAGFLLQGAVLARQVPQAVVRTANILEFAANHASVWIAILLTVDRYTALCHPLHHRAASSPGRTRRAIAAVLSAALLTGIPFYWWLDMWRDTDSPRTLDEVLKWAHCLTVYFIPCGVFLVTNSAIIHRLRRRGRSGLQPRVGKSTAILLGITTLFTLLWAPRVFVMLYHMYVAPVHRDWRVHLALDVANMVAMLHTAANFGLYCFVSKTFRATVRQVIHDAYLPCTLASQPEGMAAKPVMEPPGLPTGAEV
Experiment: Activation of intracellular IP3 signaling in transfected cells (Activation Assay)
Type: cell-based
Conditions: calculated from IP3 concentration measurements in cells transfected with the human receptor
Description: Table 12 provides exemplary compounds that were prepared and assessed, following protocols known to those of skilled in the art, for activation of intracellular inositol trisphosphate (IP3) signaling pathways that lead to elevation of intracellular calcium concentration. EC50 values provided in Table 12 were calculated from IP3 concentration measurements in cells transfected with a human receptor found in pancreatic islet cells, inter alia.

SMILES	EC50 [nM]
COc1ncc(-c2ccn(C)n2)cc1NC(=O)[C@H](Cc1ccccc1)NC1(c2cscn2)CC1 [Example 19.2]	100 to 1000
O=C([C@H](Cc1ccccc1)NCc1cscn1)N1CCc2c(-c3n[nH]c(=S)o3)cc(-c3ccncc3)cc21 [Example 58, (S)-3-Phenyl-1-(6-(pyridin-4-yl)-4-(5-thioxo-4,5-dihydro-1,3,4-oxadiazol-2-yl)indolin-1-yl)-2-(thiazol-4-ylmethylamino)propan-1-one]	< 50
O=C(Nc1csc(-c2ccncc2)n1)[C@H](Cc1ccccc1)NCc1cscn1 [Example 4, (S)-3-Phenyl-N-(2-(pyridin-4-yl)thiazol-4-yl)-2-(thiazol-4-ylmethylamino)propanamide]	100 to 1000
CNc1nccc(-c2cc(NC(=O)[C@H](Cc3ccc(F)cc3)NCc3cscn3)n(C)n2)n1 [Example 9, (2S)-3-(4-fluorophenyl)-N-(1-methyl-3-(2-(methylamino)pyrimidin-4-yl)-1H-pyrazol-5-yl)-2-(thiazol-4-ylmethylamino)propanamide]	100 to 1000
COC(=O)c1cc(-c2ccncc2)cc2c1CCN2C(=O)[C@H](Cc1ccccc1)NCc1cc[nH]n1 [Example 54.4, (S)-Methyl 1-(2-((1H-pyrazol-3-yl)methylamino)-3-phenylpropanoyl)-6-(pyridin-4-yl)indoline-4-carboxylate]	50 to 100
COc1ncc(-c2ccncc2)cc1NC(=O)[C@H](Cc1ccccc1)NCc1ccon1 [Example 35.4, (S)-2-(Isoxazol-3-ylmethylamino)-N-(2-methoxy-5-(pyridin-4-yl)pyridin-3-yl)-3-phenylpropanamide]	100 to 1000
Cc1cc(-c2cc(NC(=O)[C@@H](N)Cc3ccc(Cl)cc3Cl)cc(C(=O)O)c2)ccn1 [Example 49.1, 3-((S)-2-Amino-3-(2,4-dichlorophenyl)propanamido)-5-(2-methylpyridin-4-yl)benzoic acid]	1000 to 10000
CNc1cc(-c2nnc(NC(=O)[C@H](Cc3ccccc3)NCc3cscn3)s2)ccn1 [Example 8.1]	< 50
Cc1cc(-c2cc(NC(=O)[C@@H](N)Cc3ccc(F)cc3)n(C)n2)ccn1 [Example 16.1.F, (2S)-2-amino-3-(4-fluorophenyl)-N-(1-methyl-3-(2-methylpyridin-4-yl)-1H-pyrazol-5-yl)propanamide]	100 to 1000
O=C(O)CN[C@@H](Cc1ccc(F)cc1)C(=O)Nc1cc(-c2ccncc2)no1 [Example 3.2, (S)-2-(3-(4-Fluorophenyl)-1-oxo-1-(3-(pyridin-4-yl)isoxazol-5-ylamino)propan-2-ylamino)acetic acid]	< 50
CCn1nc(-c2ccnc(NC)c2)cc1NC(=O)[C@H](Cc1ccc(F)cc1)NCc1cscn1 [Example 31.1, (2S)—N-(1-Ethyl-3-(2-(methylamino)pyridin-4-yl)-1H-pyrazol-5-yl)-3-(4-fluorophenyl)-2-(thiazol-4-ylmethylamino)propanamide]	< 50
COc1ccc(NC(=O)[C@H](Cc2ccccc2)NCc2cscn2)cc1-c1ccncc1 [Example 37, (S)—N-(4-Methoxy-3-(pyridin-4-yl)phenyl)-3-phenyl-2-(thiazol-4-ylmethylamino)propanamide]	50 to 100
Cc1cc(-c2nc(C)c(NC(=O)[C@H](Cc3ccc(F)cc3)NCc3cscn3)s2)ccn1 [Example 22, (2S)-3-(4-Fluorophenyl)-N-(4-methyl-2-(2-methylpyridin-4-yl)thiazol-5-yl)-2-(thiazol-4-ylmethylamino)propanamide]	50 to 100
CCn1nc(-c2ccnc(NC)c2)cc1NC(=O)[C@H](Cc1ccc(F)cc1)NCc1ccc(F)cn1 [Example 31.3, (2S)—N-(1-Ethyl-3-(2-(methylamino)pyridin-4-yl)-1H-pyrazol-5-yl)-3-(4-fluorophenyl)-2-((5-fluoropyridin-2-yl)methylamino)propanamide]	< 50
CNc1cc(-c2cc(NC(=O)[C@@H](N)Cc3ccc(F)cc3)n(C(C)C)n2)ccn1 [Example 43.1, (2S)-2-Amino-3-(4-fluorophenyl)-N-(1-isopropyl-3-(2-(methylamino)pyridin-4-yl)-1H-pyrazol-5-yl)propanamide]	100 to 1000
NC(=O)c1cc(-c2ccncc2)cc2c1CCN2C(=O)[C@H](Cc1ccccc1)NCc1cscn1 [Example 60, (S)-1-(3-Phenyl-2-(thiazol-4-ylmethylamino)propanoyl)-6-(pyridin-4-yl)indoline-4-carboxamide]	100 to 1000
N[C@@H](Cc1ccccc1)C(=O)Nc1cccc(-c2ccncc2)c1 [Example 34.1.D, (S)-2-Amino-3-phenyl-N-(3-(pyridin-4-yl)phenyl)propanamide]	1000 to 10000

SMILES	EC50 [nM]
COc1ncc(-c2ccnc(C)c2)cc1NC(=O)[C@H](Cc1ccccc1)NC1(c2ccccn2)CC1 [Example 41.1, (2S)—N-(2-Methoxy-5-(2-methylpyridin-4-yl)pyridin-3-yl)-3-phenyl-2-(1-(pyridin-2-yl)cyclopropylamino)propanamide]	100 to 1000
O=C(Nc1cccc(-c2ccncc2)c1)[C@H](Cc1ccccc1)NCc1nccs1 [Example 34.16, (S)-3-Phenyl-N-(3-(pyridin-4-yl)phenyl)-2-(thiazol-2-ylmethylamino)propanamide]	100 to 1000
Cc1nnc(-c2cc(-c3ccncc3)cc3c2CCN3C(=O)[C@H](Cc2ccccc2)NCc2cscn2)o1 [Example 67, (2S)-1-(4-(5-Methyl-1,3,4-oxadiazol-2-yl)-6-(pyridin-4-yl)indolin-1-yl)-3-phenyl-2-(thiazol-4-ylmethylamino)propan-1-one]	50 to 100
Cn1nc(-c2ccncc2)cc1NC(=O)[C@H](Cc1ccc(F)cc1)NCc1cscn1 [Example 17.5, (S)-3-(4-Fluorophenyl)-N-(1-methyl-3-(pyridin-4-yl)-1H-pyrazol-5-yl)-2-(thiazol-4-ylmethylamino)propanamide]	< 50
O=C(Nc1cccc(-c2ccncc2)c1)[C@H](Cc1ccccc1)NCCC1CCOCC1 [Example 34.1, (S)-3-Phenyl-N-(3-(pyridin-4-yl)phenyl)-2-(2-(tetrahydro-2H-pyran-4-yl)ethylamino)propanamide]	100 to 1000
Cc1cc(-c2cnc(OCC(=O)OC(C)(C)C)c(NC(=O)[C@H](Cc3ccccc3)NCc3cscn3)c2)ccn1 [Example 78, tert-Butyl 2-(5-(2-methylpyridin-4-yl)-3-((S)-3-phenyl-2-(thiazol-4-ylmethylamino)propanamido)pyridin-2-yloxy)acetate]	< 50
O=C(NCCN1CCNC1=O)c1cc(-c2ccncc2)cc2c1CCN2C(=O)[C@H](Cc1ccccc1)NCc1cscn1 [Example 81, (S)—N-(2-(2-Oxoimidazolidin-1-yl)ethyl)-1-(3-phenyl-2-(thiazol-4-ylmethylamino)propanoyl)-6-(pyridin-4-yl)indoline-4-carboxamide]	100 to 1000
O=C(NCC1CC1)c1cc(NC(=O)[C@H](Cc2ccccc2)NCc2cscn2)cc(-c2ccncc2)c1 [Example 70, (S)—N-(Cyclopropylmethyl)-3-(3-phenyl-2-(thiazol-4-ylmethylamino)propanamido)-5-(pyridin-4-yl)benzamide]	50 to 100
Cc1ncc(CN[C@@H](Cc2ccccc2)C(=O)Nc2cccc(-c3ccncc3)c2)s1 [Example 34.18, (S)-2-((2-Methylthiazol-5-yl)methylamino)-3-phenyl-N-(3-(pyridin-4-yl)phenyl)propanamide]	100 to 1000
Cc1cc(-c2cc(NC(=O)[C@H](Cc3ccccc3)NCc3ccccn3)cc(NS(C)(=O)=O)c2)ccn1 [Example 51.2, (2S)—N-(3-(2-Methylpyridin-4-yl)-5-(methylsulfonamido)phenyl)-3-phenyl-2-(pyridin-2-ylmethylamino)propanamide]	50 to 100
Nc1cc(-c2cccc(NC(=O)[C@H](Cc3ccccc3)NCc3cscn3)c2)ccn1 [Example 36, (2S)—N-(3-(2-Aminopyridin-4-yl)phenyl)-3-phenyl-2-(thiazol-4-ylmethylamino)propanamide]	100 to 1000
O=C(Nc1cccc(-c2ccncc2)c1)[C@@H](Cc1ccccc1)NCc1nccs1 [Example 34.7, (R)-3-Phenyl-N-(3-(pyridin-4-yl)phenyl)-2-(thiazol-2-ylmethylamino)propanamide trifluoroacetate]	1000 to 10000
COC(=O)c1cc(-c2ccncc2)cc2c1CCN2C(=O)[C@H](Cc1ccc(F)cc1)NCc1ccccn1 [Example 54.7, (S)-Methyl 1-(3-(4-fluorophenyl)-2-(pyridin-2-ylmethylamino)propanoyl)-6-(pyridin-4-yl)indoline-4-carboxylate]	50 to 100
O=C([C@H](Cc1ccccc1)NCc1ccccn1)N1CCc2ccc(-c3ccncc3)cc21 [Example 50, (S)-3-Phenyl-2-(pyridin-2-ylmethylamino)-1-(6-(pyridin-4-yl)indolin-1-yl)propan-1-one TFA Salt]	100 to 1000
CC(N[C@@H](Cc1ccccc1)C(=O)Nc1cccc(-c2ccncc2)c1)c1ccccn1 (stereo partly drawn) [Example 34.2, (2S)-3-Phenyl-2-(1-(pyridin-2-yl)ethylamino)-N-(3-(pyridin-4-yl)phenyl)propanamide]	100 to 1000
COC(=O)c1cc(-c2ccncc2)cc2c1CCN2C(=O)[C@H](Cc1ccc(F)cc1)NCc1cc[nH]n1 [Example 54.6, (S)-Methyl 1-(2-((1H-pyrazol-3-yl)methylamino)-3-(4-fluorophenyl)propanoyl)-6-(pyridin-4-yl)indoline-4-carboxylate]	50 to 100
